Data taken from patent publication US5302514A, “Maltooligoside derivative, reagent for determining α-amylase activity containing the same as effective ingredient and a process for determining the α-amylase activity using same” (Kikkoman Corporation, priority 1991, dated 1994).

Key:
[1] = target: T1, amylase derived from human pancreatic juice (human P type α-amylase) (Homo sapiens, UniProt P04746); experiment: Km value, P type α-amylase; type: biochemical; conditions: pH 7.0, 37° C., Lineweaver-Burk
T1 sequence (P04746 16-511): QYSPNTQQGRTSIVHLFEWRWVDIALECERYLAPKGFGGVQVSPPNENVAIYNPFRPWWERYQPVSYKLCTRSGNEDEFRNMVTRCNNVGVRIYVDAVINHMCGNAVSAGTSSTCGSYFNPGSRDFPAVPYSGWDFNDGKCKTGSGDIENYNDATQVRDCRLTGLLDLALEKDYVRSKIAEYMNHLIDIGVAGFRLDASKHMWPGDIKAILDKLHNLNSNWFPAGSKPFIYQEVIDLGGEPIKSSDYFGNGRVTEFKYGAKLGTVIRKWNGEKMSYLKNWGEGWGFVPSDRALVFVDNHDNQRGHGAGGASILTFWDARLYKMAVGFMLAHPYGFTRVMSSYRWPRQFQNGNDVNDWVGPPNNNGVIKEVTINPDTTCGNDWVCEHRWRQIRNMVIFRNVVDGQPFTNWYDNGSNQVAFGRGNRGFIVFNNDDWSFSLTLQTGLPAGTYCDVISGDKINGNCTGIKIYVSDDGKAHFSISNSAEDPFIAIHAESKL
Protocol: (§1) Km values, hydrolysis rate, water solubility and the patterns of action in the hydrolysis of the present substrates 2-chloro-4-nitrophenyl 5^5 -eno-4^5 -O-mesyl-β-D-maltopentaoside (EMG5CNP) and 2-chloro-4-nitrophenyl 6^5 -azido-6^5 -deoxy- β-D-maltopentaoside (ADG5CNP) obtained in Example were examined in accordance with the following methods.
(§2) Substrate solutions were prepared by dissolving in a 50 mM phosphate buffer (pH=7.0) containing 40 mM NaCl and 2 mM MgCl2 a substrate to 0.16, 0.32, 0.48, 0.64, 0.80 and 0.96 mM, respectively.
(§3) The Km value of each substrate solution was obtained by measuring the hydrolysis rate of the substrate in accordance with the same procedure as in the measurement of hydrolysis rate described below and roughly calculating the Lineweaver-Burk's reciprocal plot (see "Tanpaku-Kohso no Jikken-hou", ed. Takeichi Horio & Jinpei Yamashita, Nanko-do, 1981).
(§4) Each substrate was dissolved in a 50 mM phosphate buffer (pH=7.0) containing 40 mM NaCl and 2 mM MgCl2 to make three substrate solutions in a concentration of 0.8-1.6 times and three substrate solutions in a concentration of 1.6-3.2 times per the roughly calculated Km value in the aforementioned paragraph (ii).
(§5) The Km value was calculated in accordance with the same procedure as in the aforementioned paragraph (ii).
(§6) P: amylase derived from human pancreatic juice, […]

[2] = target: T2, amylase derived from human saliva (human S type α-amylase) (Homo sapiens, UniProt P0DUB6); experiment: Km value, S type α-amylase; type: biochemical; conditions: pH 7.0, 37° C., Lineweaver-Burk
T2 sequence (P0DUB6 16-511): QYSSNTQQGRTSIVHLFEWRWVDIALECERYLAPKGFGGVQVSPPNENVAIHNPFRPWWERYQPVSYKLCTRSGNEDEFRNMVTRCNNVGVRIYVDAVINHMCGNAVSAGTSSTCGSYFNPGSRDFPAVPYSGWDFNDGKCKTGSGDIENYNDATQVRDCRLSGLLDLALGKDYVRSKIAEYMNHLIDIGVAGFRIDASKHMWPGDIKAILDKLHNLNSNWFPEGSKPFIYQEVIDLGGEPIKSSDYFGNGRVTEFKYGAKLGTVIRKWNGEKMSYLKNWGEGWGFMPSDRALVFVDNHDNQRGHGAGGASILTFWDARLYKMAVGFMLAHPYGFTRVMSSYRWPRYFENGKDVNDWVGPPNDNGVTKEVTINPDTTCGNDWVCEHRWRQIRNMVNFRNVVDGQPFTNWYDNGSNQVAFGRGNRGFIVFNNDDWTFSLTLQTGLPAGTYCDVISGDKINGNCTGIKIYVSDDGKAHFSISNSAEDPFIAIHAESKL
Protocol: as §1, §2, §3, §4, §5
(§7) S: amylase derived from human saliva.

[3] = target: T2, amylase derived from human saliva (human S type α-amylase); experiment: Patterns of action (hydrolyzed product by HPLC), S type α-amylase; type: biochemical; conditions: 0.5 mM substrate, 37° C., 20 minutes
Protocol: (§8) Commercially available human P type and S type α-amylase solutions having a concentration of ca. 500 IU/l were prepared in the same manner as in the step (3) of Example 5.
(§9) To 1.0 ml of the substrate solution was added 100 μl of the α-amylase solution prepared in the paragraph (iii) of the aforementioned hydrolysis rate, and the mixture, after stirred sufficiently, was subjected to reaction at 37° C. for 20 minutes. The hydrolyzed product was determined quantitatively by the high performance liquid chromatography of the reaction mixture.
as §7

[4] = target: T2, amylase derived from human saliva (human S type α-amylase); experiment: Hydrolysis rate, S type α-amylase; type: biochemical; conditions: relative to hydrolysis rate of 3 mM G5CNP defined as 10, substrate 7-9 times the Km
Protocol: (§10) The coupled enzyme solution was prepared in the same manner as in the step (2) of Example 5.
as §8
(§11) With 250 μl of the α-amylase solution prepared in (iii) was mixed 1.0 ml of the coupled enzyme. The mixture was heated at 37° C. for 1 minute, and 2.0 ml of the substrate solution was added with stirring to the mixture. The variation of absorbance at 400 nm was measured for 2 minutes after heating the mixture at 37° C. for 2 minutes. The hydrolysis rate of each substrate, namely the variable absorbance per unit time was expressed with the relative values to the hydrolysis rate of 3 mM G5CNP (the reference substrate) which is defined as 10.
as §7

[5] = target: T1, amylase derived from human pancreatic juice (human P type α-amylase); experiment: Hydrolysis rate, P type α-amylase; type: biochemical; conditions: relative to hydrolysis rate of 3 mM G5CNP defined as 10, substrate 7-9 times the Km
Protocol: as §10, §8, §11, §6

[6] = Solubility in water; type: physicochemical; conditions: 20 g of substrate added to 100 ml of water
Protocol: To 100 ml of water was added 20 g of a substrate, and the dissolution state was observed.

[7] = target: T1, amylase derived from human pancreatic juice (human P type α-amylase); experiment: Patterns of action (hydrolyzed product by HPLC), P type α-amylase; type: biochemical; conditions: 0.5 mM substrate, 37° C., 20 minutes
Protocol: as §8, §9, §6

[8] = test system: human α-amylase (P:S=1:1); experiment: α-Amylase hydrolysis (increase in absorbance at 400 nm with coupled enzymes); type: biochemical; conditions: for Increase in absorbance for 2 minutes (corrected by the 0 IU/l of α-amylase activity): substrate solution 3.00 mM, 400 nm, 37° C., pH 7.0; for hydrolysis by α-amylase (in words): as understood from Tables 1 and 2
Protocol: Coupled enzyme solution was prepared by dissolving a commercially available α-glucosidase derived from yeast and a commercially available β-glucosidase derived from almond in a 50 mM phosphate buffer (pH=7.0) containing 40 mM NaCl and 2 mM MgCl2 to a concentration of 117 units/ml and 13 units/ml, respectively. As the commercially available α- and β-glucosidases, those available from Toyobo Co., Ltd. were used.
Standard α-amylase solutions were prepared by dissolving a commercially available human α-amylase (P:S=1:1) in purified water to a concentration of 0, 148, 284, 401 and 525 IU/l, respectively. As the commercially available human α-amylase, Calibzyme.AMY manufactured by International Reagents Corp. was employed. As for the activity of α-amylase, an amount of the enzyme which decomposes 1μ mol of (a commercially available) 2-chloro-4-nitrophenyl β-D-maltopentaoside at 37° C. for one minute was defined as 1 international unit (IU).
The substrate solution (a) was prepared by dissolving 2-chloro-4-nitorphenyl 6^5 -azido-6^5 -deoxy-β-D-maltopentaoside (referred to hereinafter as the substrate of the present invention) obtained in Example 3 in a 50 mM phosphate buffer (pH=7.0) containing 40 mM NaCl and 2 mM MgCl2 to a concentration of 3.00 mM.
The substrate solution (b) was prepared by dissolving 2-chloro-4-nitrophenyl 6^3 -azido-6^3 -deoxy-β-D-maltotrioside (referred to hereinafter as the reference substrate) obtained in the step (1) in a 50 mM phosphate buffer (pH=7.0) containing 40 mM NaCl and 2 mM MgCl2 to a concentration of 3.00 mM.
A coupled enzyme solution was prepared in the same manner as in the step (2) of Example 5.
α-amylase solutions were prepared in the same manner as in the step (3) of Example 5 by dissolving a commercially available human α-amylase (P:S=1:1) in purified water to a concentration of 0, 250 and 500 IU/l, respectively.
The coupled enzyme solution in an amount of 1.0 ml was added with stirring to 250 μl of the α-amylase solution, and the mixture was heated at 37° C. for one minute. Each of the substrate solution in an amount of 2.0 ml was added with stirring to the mixture, and the mixture was heated at 37° C. for 2 minutes before measuring the variation of the absorbance at 400 nm for 2 minutes.
2-chloro-4-nitrophenyl 5^5 -eno-4^5 -O-mesyl-β-D-maltopentaoside (referred to hereinafter as substrate of the present invention) obtained in Example 1 was dissolved in a 50 mM phosphate buffer (pH=7.0) containing 40 mM NaCl and 2 mM MgCl2 to a concentration of 3.00 mM.
2-chloro-4-nitrophenyl 5^3 -eno-4^3 -O-mesyl-β-D-maltotrioside(referred to hereinafter as reference substrate) obtained in the previous step (1) was dissolved in a 50 mM phosphate buffer (pH=7.0) containing 40 mM NaCl an 2 mM MgCl2 to a concentration of 3.00 mM.
α-amylase solutions were prepared in the same manner as in the step (5) of Example 7.
The variations of absorbance were measured in the same manner as in the step (6) of Example 7.

SMILES | Km [1] | Km [2] | Patterns of action, hydrolyzed product G2CNP [3] | Patterns of action, hydrolyzed product G3CNP [3] | Patterns of action, hydrolyzed product G4CNP [3] | Patterns of action, hydrolyzed product GCNP [3] | Hydrolysis rate [4] | Hydrolysis rate [5] | Solubility in water [6] | Patterns of action, hydrolyzed product G2CNP [7] | Patterns of action, hydrolyzed product G3CNP [7] | Patterns of action, hydrolyzed product G4CNP [7] | Patterns of action, hydrolyzed product GCNP [7] | Increase in absorbance for 2 minutes (corrected by the 0 IU/l of α-amylase activity) ([8]; Table 1, α-amylase activity 250 IU/l) | Increase in absorbance for 2 minutes (corrected by the 0 IU/l of α-amylase activity) ([8]; Table 1, α-amylase activity 500 IU/l) | hydrolysis by α-amylase (in words) [8] | Increase in absorbance for 2 minutes (corrected by the 0 IU/l of α-amylase activity) ([8]; Table 2, α-amylase activity 250 IU/l) | Increase in absorbance for 2 minutes (corrected by the 0 IU/l of α-amylase activity) ([8]; Table 2, α-amylase activity 500 IU/l)
O=[N+]([O-])c1ccc(O[C@@H]2O[C@H](CO)[C@@H](O[C@H]3O[C@H](CO)[C@@H](O[C@H]4O[C@H](CO)[C@@H](O[C@H]5O[C@H](CO)[C@@H](O[C@H]6O[C@H](CO)[C@@H](O)[C@H](O)[C@H]6O)[C@H](O)[C@H]5O)[C@H](O)[C@H]4O)[C@H](O)[C@H]3O)[C@H](O)[C@H]2O)c(Cl)c1 [Example G5CNP, 2-chloro-4-nitrophenylβ-D-maltopentaoside, reference compound] | 290 µM | 370 µM | 83 mol % | 11 mol % | 4 mol % | 2 mol % | 10 | 10 | Good | 81 mol % | 8 mol % | 8 mol % | 3 mol % | – | – | – | – | –
[N-]=[N+]=NC[C@H]1O[C@H](O[C@H]2[C@H](O)[C@@H](O)[C@@H](O[C@H]3[C@H](O)[C@@H](O)[C@H](Oc4ccc([N+](=O)[O-])cc4Cl)O[C@@H]3CO)O[C@@H]2CO)[C@H](O)[C@@H](O)[C@@H]1O [Substrate solution (b) (Table 1), 2-chloro-4-nitrophenyl 6^3-azido-6^3-deoxy-β-D-maltotrioside, reference compound] | – | – | – | – | – | – | – | – | – | – | – | – | – | 0.002 | 0.005 | hardly hydrolyzed | – | –
C=C1O[C@H](O[C@H]2[C@H](O)[C@@H](O)[C@@H](O[C@H]3[C@H](O)[C@@H](O)[C@H](Oc4ccc([N+](=O)[O-])cc4Cl)O[C@@H]3CO)O[C@@H]2CO)[C@H](O)[C@@H](O)[C@@H]1OS(C)(=O)=O [Substrate solution (b) (Table 2), 2-chloro-4-nitrophenyl 5^3-eno-4^3 -O-mesyl-β-D-maltotrioside, reference compound] | – | – | – | – | – | – | – | – | – | – | – | – | – | – | – | hardly hydrolyzed | 0.001 | 0.002
